Consider 1 compound from publication PMC6934184, “Selective DNA-PKcs inhibition extends the therapeutic index of localized radiotherapy and chemotherapy” (The Journal of Clinical Investigation, 2019).

This assay deals with T1, RIPK3 (Homo sapiens, UniProt Q9Y572).
T1 construct: purchased Thermo Fisher Scientific (Life Technologies) SelectScreen
Nature of the assay: SelectScreen LanthaScreen. The assay is classed as binding. The note with it: read-out: % displacement. The procedure, abridged: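 SelectScreen broad panel; activity (Z'LYTE, Adapta) plus binding formats. ATP: Km app for CSF1R Z'LYTE; 10 for CAMK1 Adapta. Readout = % per kinase.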
In general terms: Time-resolved FRET reads energy transfer from a long-lived donor to a nearby acceptor.

T1 sequence (Q9Y572 whole entry): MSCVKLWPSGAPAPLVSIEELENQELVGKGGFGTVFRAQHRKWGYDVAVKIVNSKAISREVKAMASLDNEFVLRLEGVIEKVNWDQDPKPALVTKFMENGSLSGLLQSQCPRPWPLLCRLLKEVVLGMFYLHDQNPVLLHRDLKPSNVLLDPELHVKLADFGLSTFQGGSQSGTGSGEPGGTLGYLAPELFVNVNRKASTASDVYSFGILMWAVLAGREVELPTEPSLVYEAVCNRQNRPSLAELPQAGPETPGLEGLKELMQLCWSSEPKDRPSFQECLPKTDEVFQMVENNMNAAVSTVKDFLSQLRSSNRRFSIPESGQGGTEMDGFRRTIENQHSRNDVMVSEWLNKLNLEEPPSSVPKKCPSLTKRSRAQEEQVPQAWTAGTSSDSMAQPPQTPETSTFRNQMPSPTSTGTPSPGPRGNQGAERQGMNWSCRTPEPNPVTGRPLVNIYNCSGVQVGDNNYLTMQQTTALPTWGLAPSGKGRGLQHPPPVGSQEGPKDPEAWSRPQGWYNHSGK

In the case of `CN(C(=O)CN1CCOCC1)c1ccc2sc3c(-c4cccc5c(=O)cc(N6CC7CCC(C6)O7)oc45)cccc3c2c1` [NU5455], the inhibition at 1 µM was -2.3%.
